Laboratory results taken from patent US7314956B2, “Multifunctional carrier for the delivery of a pharmacological agent or genetic material into a cell” (Vaxim, Inc., priority 2001, dated 2008).
Like-named read-outs stand apart in the source and are kept apart here.

Experiments:
[1] = system: R5 and dual-tropic (R5/X4) HIV-1 strains; conditions: monocyte-derived macrophages (MDMs), microglia, primary CD4(+) T cells; cited from earlier work
CD4 receptor = CD4 receptor (Homo sapiens, UniProt P01730); conditions: in vitro; cited from earlier work
[2] = in vitro; cited from earlier work
[3] = system: rabbit anti peptide T antiserum; conditions: compared with the other fractions of the same adduct, FIG. 14
Protocol: HPLC fractions of succinic acid-(Glu)n conjugated to peptide T were analyzed by ELISA (i.e., enzyme linked immunosorbent assay). HPLC fractions of conjugated peptide T were diluted (1:10) in coating buffer [1.59 g sodium carbonate (Na2CO3), 2.93 g sodium bicarbonate (NaHCO3) Dissolve in 900 ml H2O, adjust pH to 9.6 with HCl and make up to 1 L]. Control net peptide T was dissolved in coating buffer with a concentration of 5 μg/ml. 100 μl of each of two peptide T preparations was added to each well of a 96-well microtiter plate (Nunc). The plate was covered with a plate sealer and incubated at 4° C. over night. Following 3 washes with PBS-Tween [phosphate buffer saline: 8.0 g sodium chloride (NaCl), 0.2 g monobasic potassium phosphate (KH2PO4), 1.15 g dibasic sodium phosphate (Na2HPO4), 0.2 g potassium chloride (KCl), Dissolve in 900 ml H2O, adjust pH to 7.4 with NaOH or HCl and make up to 1 L, PBS+0.5 ml Tween 20 per liter]. 100 μl of diluted rabbit anti peptide T antiserum (1:250, in assay diluent, 0.1% BSA and 0.1% sodium azide (NaN3) in PBS) was added to each well. The plate was sealed and incubated for 1 hour at room temperature. Following 5 washes, each well was added with 100 μl of diluted goat anti rabbit IgG alkaline phosphatase conjugate (KPL, 1:1000 dilution in assay diluent). The plate was sealed and incubated for 30 min. […] Optical density (OD) was then read at 405 nm.

Balb/c mice = conditions: i.p. 0.5 mg per immunization, day 0, 8 and 21, Freund's adjuvant, antiserum 1:100, FIG. 15
Protocol: Balb/c mice were immunized intraperitoneally with succinic acid-(glu)n-Peptide T at 0.5 mg per immunization and per animal. The antigen complex was administered with complete Freund's adjuvant (first injection) and with incomplete Freund's adjuvant for booster injections. Mice were immunized 3 times at day 0, day 8 and day 21. Mice were bled via tail vein and 15 μl of blood collected by a capillary tube was transferred into 135 μl PBS in a 12×75 tissue culture tube. Diluted mouse sera were collected after centrifugation for 10 min.
A polystyrene 96-well plate (Nunc) was coated with free peptide T at 10 μg/ml in coating (pH 9.6) overnight at 4° C. The plate was washed 3 times with wash buffer. Afterwards, 100 μl of diluted (1:100 in assay diluent) mouse antiserum from each mouse was then added to each well (each serum sample was assayed in duplicate) and incubated for 2 hours at room temperature. The plates were then washed 5 times with wash buffer. Goat anti-mouse IgG conjugated to alkaline phosphate (KPL) was diluted 1:1000 in PBS with 1% bovine serum albumin, added to the wells, and incubated for 30 min at room temperature followed by six washes with wash buffer. Substrate solution (p-Nitrophenyl phosphate, 2 mg/ml in substrate buffer) was then added. Absorbance was then measured using a microplate reader at 405 nm.

| Substance | replication of HIV-1 strains [1] | binding of isolated gp120 and HIV-1 to the CD4 receptor (CD4 receptor) | chemotactic activity [2] | immunoreactivity (optical density at 405 nm) ([3]; HPLC Fraction 3 (highest retention time)) | immune response (anti-peptide T antibodies, ELISA OD at 405 nm) (Balb/c mice) | immunoreactivity (optical density at 405 nm) ([3]; HPLC Fraction 2 (highest retention time)) |
| --- | --- | --- | --- | --- | --- | --- |
| D-Ala-Ser-Thr-Thr-Thr-Asn-Tyr-Thr-NH2 [Peptide T] | inhibits replication | inhibition of the binding | chemotactic activity | – | – | – |
| Succinic Acid-(Glu)2-(Glu)4-(Glu)8-(Peptide T)16 [Shell 3] | – | – | – | highest immunoreactivity | some mice show greater immune response | – |
| Succinic Acid-(Glu)2-(Glu)4-(Peptide T)8 [Shell 2] | – | – | – | – | some mice show greater immune response | highest immunoreactivity |
